Measurements published in paper PMC6877352, “Modifying the Siderophore Triacetylfusarinine C for Molecular Imaging of Fungal Infection” (Molecular imaging and biology, 2019).
Where “and” joins values, the source holds several entries; their conditions need not be identical. Equal values may be shown once. Entries after “also recorded” stand apart in the source; their conditions may differ.

Assays:
[1] = Protein binding in human serum (size exclusion spin columns); details: 37 °C, n = 3
Description: At selected time points, 25 μl of serum aliquots was applied on size exclusion spin columns MicroSpin™ G-50 (GE Healthcare, Vienna, Austria). Columns were centrifuged at 2000 rcf for 2 min to separate protein bound radiotracer (eluate) from non-protein bound radiotracer (column). Protein binding ability was determined by measuring activities of column and eluate in the gamma counter.

[2] = system: A. fumigatus wildtype (ATCC46645); experiment: In vitro uptake assay in A. fumigatus; format: cell-based, Aspergillus fumigatus; details: iron-starvation condition, 45 min, normalized to [^68Ga]TAFC uptake from the same experiment, n = 3
Description: For in vitro uptake studies, A. fumigatus wildtype (ATCC46645) was used. Fungal strain was cultured at 37 °C in Aspergillus minimal medium (AMM) containing 1 % (m/v) glucose as carbon source, 20 mM glutamine as nitrogen source, salts, and trace elements. Iron-sufficient media were prepared by adding FeSO4 to a final concentration of 30 μM. For iron-deficient conditions, supplementation of iron was omitted. Iron starvation was verified by the detection of extracellular siderophore production which is suppressed by iron supplementation.
Uptake assays were performed in either iron-deficient or iron-sufficient A. fumigatus wildtype cultures. In a 96-well MultiScreen Filter Plates HTS (1 μm glass fiber filter, Merck Millipore, Darmstadt, Germany), 180 μl of A. fumigatus suspended in iron-replete or iron-depleted medium was added. [^68Ga]siderophores (approx. 1 × 10^5 cpm, 80 nM) were incubated with either PBS pH 7.4 (total series) or blocking solution (10 μM [Fe]TAFC) (non-specific series) at RT for 45 min in quadriplicates. The incubation was interrupted by suction of the medium and the plate was washed twice with ice-cold TRIS-buffered saline (10 mM, pH 7.3). The filters were isolated and the remaining activities were measured in the gamma counter. The uptake was calculated as % uptake of total activity added; each assay was repeated three times. To normalize uptake variations between different fungal cultures, the uptake of each [^68Ga]siderophore was expressed as the ratio to [^68Ga]TAFC uptake from the same experiment. The mean values of three different assays were used to quantitatively compare the difference in uptake between the compounds.

[3] = Stability in PBS pH 7.4 (RP-HPLC, %RCP); details: PBS pH 7.4, 37 °C, n = 3
Description: (§1) [^68Ga]siderophore (50 μl, 2 nmol) was incubated in 450 μl PBS or human serum at 37 °C. At each time point, aliquot of PBS was injected directly to RP-HPLC whereas serum aliquot was mixed with MeOH, vortexed, and centrifuged at 20,000 rcf for 2 min. Supernatant was diluted with H2O and subsequently analyzed by RP-HPLC. The stability was presented as %RCP of radiotracer (n = 3).

[4] = Biodistribution in healthy BALB/c mice; details: 90 min p.i.
Description: At 90 min post injetion (p.i.), mice were sacrified by cervical dislocation. Organs and tissues (blood, spleen, pancrease, stomach, intestine, kidneys, liver, heart, lung, muscle, femur) were collected and weighed. Radioactivities accumulated by tissues were measured in the gamma counter. The obtained values were expressed as the percentage of injected dose per gram tissue (%ID/g). Urine sample from each animal was injected to RP-HPLC for analysis of urinary metabolic profile of [^68Ga]siderophore.

[5] = Stability in fresh human serum (RP-HPLC, %RCP); details: 37 °C, n = 3
Description: as §1

[6] = Small animal PET/CT imaging in non-infected Lewis rats; details: for excretion in PET/CT images: healthy Lewis rats, 45 min p.i.; for Lung uptake (non-infected): non-infected Lewis rats, r.o. injection ~6 MBq, PET/CT 45 min p.i.
Description: (§2) PET and CT images were acquired with an Albira PET/SPECT/CT small animal imaging system (Bruker Biospin Corporation, Woodbridge, CT, USA). A. fumigatus infection in rats was established as described by Petrik, et al.. A group of 3 female Lewis rats (2–3 months old), healthy or lung infected, were injected retro-orbitally (r.o.) with [^68Ga] […] Animals were anesthetized with isoflurane (FORANE, Abbott Laboratories, Abbott Park, IL, USA) (2 % flow rate) and positioned prone head first in the Albira system. PET/CT imaging was started 45 min p.i. with a 10-min PET (FOV 148 mm axial) and a subsequent triple CT scanning (FOV 3 × 65 mm axial, 45 kVp, 400 μA, at 400 projections). For reconstruction, Albira software (Bruker Biosoin Corporation, Woodbridge, CZ, USA) was used involving filtered backprojection and MLEM algorithms. PMOD software (PMOD Technologies Ltd., Zurich, Switzerland) was used to analyze and view the reconstructed images.

A. fumigatus infection = experiment: Small animal PET/CT imaging in rat IPA model; details: IPA Lewis rats (A. fumigatus lung infection), r.o. injection ~6 MBq, PET/CT 45 min p.i.
Description: as §2

[7] = Distribution coefficient (logD), octanol/PBS pH 7.4; format: physicochemical; details: [^68Ga]siderophore 4 μM, octanol/PBS pH 7.4, n = 5
Description: [^68Ga]siderophore (4 μM) in 500 μl phosphate-buffered saline (PBS), pH 7.4, was added to 500 μl octanol. The mixture was vortexed at 1400 rpm for 15 min and subsequently centrifuged at 2000 rcf for 2 min.

[8] = system: A. terreus wildtype strain; experiment: In vitro uptake assay in A. terreus (lacks the MirB transporter); format: cell-based, Aspergillus terreus
Description: To confirm the specificity of uptake of TAFC derivatives by A. fumigatus via the MirB transporter, A. terreus, which lacks the MirB transporter, was used for in vitro uptake assay. A. terreus was grown in either iron-deficient or iron-sufficient cultures. Uptake studies were performed as described for A. fumigatus and expressed as % uptake of total activity added.

[9] = healthy BALB/c mice, i.v., n = 3

Row | SMILES | Protein binding (%) ([1]; incubation time 30 min) | Protein binding (%) ([1]; incubation time 60 min) | Protein binding (%) ([1]; incubation time 120 min) | uptake ratio to [^68Ga]TAFC [2] | Stability in PBS (%) ([3]; 30 min) | Stability in PBS (%) ([3]; 60 min) | Stability in PBS (%) ([3]; 120 min) | species detected in urine (RP-HPLC urinary metabolic profile) ([4]; BALB/c mice) | excretion ([4]; healthy BALB/c mice, i.v.) | blood levels [4, 9] [%ID/g] | Stability in serum (%) ([5]; 30 min) | Stability in serum (%) ([5]; 60 min) | Stability in serum (%) ([5]; 120 min) | excretion in PET/CT images [6] | Lung uptake (non-infected) [6] [%ID/g] | Lung uptake (infected) (A. fumigatus infection) [%ID/g] | also measured
1 | CC1=CC(=O)N(O)CCCC(NC(=O)CCC(=O)O)C(=O)OCCC(C)=CC(=O)N(O)CCCC(NC(=O)CCC(=O)O)C(=O)OCCC(C)=CC(=O)N(O)CCCC(NC(=O)CCC(=O)O)C(=O)OCC1 (stereo not drawn) (68Ga complex, metal not drawn) [FSC(suc)3, trisuccinyl(FSC)] | 2.53 ± 0.63 | 2.96 ± 0.21 | 2.60 ± 0.62 | 0.01 | 99.85 ± 0.07 | 99.77 ± 0.12 | 99.72 ± 0.09 | only intact | rapid renal excretion | < 0.1 | 99.59 ± 0.08 | 99.43 ± 0.17 | 99.36 ± 0.08 | excreted rapidly via the urinary system | 0.21 ± 0.03 | – | uptake ratio to [^68Ga]TAFC ([2]; listed as [^68Ga]FSC(suc)3): less than 0.05; retention in the intestine and kidneys in comparison with [^68Ga]TAFC ([4]; BALB/c mice): Slightly lower retention; Lung uptake (infected) (A. fumigatus infection; listed as [^68Ga]FSC(suc)3): 0.31 ± 0.04 %ID/g and 0.3 %ID/g
2 | CC(=O)NC1CCCN(O)C(=O)C=C(C)CCOC(=O)C(NC(C)=O)CCCN(O)C(=O)C=C(C)CCOC(=O)C(NC(C)=O)CCCN(O)C(=O)C=C(C)CCOC1=O (stereo not drawn) (68Ga complex, metal not drawn) [TAFC, triacetylfusarinine C] | 2.54 ± 1.01 | 3.55 ± 0.68 | 2.96 ± 0.33 | 1 | 99.89 ± 0.02 | 99.83 ± 0.13 | 99.73 ± 0.03 | only intact | rapid renal excretion | < 0.1 | 99.48 ± 0.29 | 99.46 ± 0.09 | 99.41 ± 0.19 | excreted rapidly via the urinary system | 0.20 ± 0.03 | 0.69 ± 0.11 | –
3 | CCCC(=O)NC1CCCN(O)C(=O)C=C(C)CCOC(=O)C(NC(=O)CCC)CCCN(O)C(=O)C=C(C)CCOC(=O)C(NC(=O)CCC)CCCN(O)C(=O)C=C(C)CCOC1=O (stereo not drawn) (68Ga complex, metal not drawn) [TBuFC, tributanoyl(FSC)] | – | – | – | 0.86 | – | – | – | – | – | – | – | – | – | – | – | – | uptake ratio to [^68Ga]TAFC ([2]; listed as [^68Ga]TBuFC): around 1; logD [7]: 0.34 ± 0.01
4 | CCCC(=O)NC1CCCN(O)C(=O)C=C(C)CCOC(=O)C(NC(C)=O)CCCN(O)C(=O)C=C(C)CCOC(=O)C(NC(C)=O)CCCN(O)C(=O)C=C(C)CCOC1=O (stereo not drawn) (68Ga complex, metal not drawn) [DABuFC, diacetylbutanoyl(FSC)] | 2.63 ± 1.03 | 2.92 ± 1.11 | 3.61 ± 1.19 | 0.87 | 99.87 ± 0.07 | 99.85 ± 0.08 | 99.79 ± 0.14 | only intact | rapid renal excretion | < 0.1 | 99.58 ± 0.04 | 99.59 ± 0.20 | 99.60 ± 0.14 | – | 0.23 ± 0.03 | 0.79 ± 0.15 | uptake ratio to [^68Ga]TAFC ([2]; listed as [^68Ga]DABuFC): around 1; retention in the blood, spleen, and pancreas in comparison with [^68Ga]TAFC ([4]; BALB/c mice): Slightly lower retention; excretion in PET/CT images ([6]; listed as [^68Ga]DABuFC): excreted rapidly via the urinary system; also recorded: certain hepatobiliary excretion
5 | C/C1=C/C(=O)N(O)CCCC(N)C(=O)OCC/C(C)=C\C(=O)N(O)CCCC(N)C(=O)OCC/C(C)=C\C(=O)N(O)CCCC(N)C(=O)OCC1 (stereo not drawn) (68Ga complex, metal not drawn) [FSC, fusarinine C] | – | – | – | 1.37 | – | – | – | – | – | – | – | – | – | – | – | – | uptake ratio to [^68Ga]TAFC ([2]; listed as [^68Ga]FSC): ~1.4; Uptake in A. terreus in iron-replete condition ([8]; iron-replete condition): 2 % of total activity added; Uptake in A. terreus with TAFC blocking ([8]; iron-starvation condition with TAFC blocking): 28 % of total activity added; uptake in A. terreus ([8]; iron-starvation condition, 45 min, n = 3): > 30 % of total activity added
6 | CCC(=O)NC1CCCN(O)C(=O)C=C(C)CCOC(=O)C(NC(=O)CC)CCCN(O)C(=O)C=C(C)CCOC(=O)C(NC(=O)CC)CCCN(O)C(=O)C=C(C)CCOC1=O (stereo not drawn) (68Ga complex, metal not drawn) [TPFC, tripropanoyl(FSC)] | 2.31 ± 0.57 | 3.39 ± 0.32 | 2.65 ± 0.66 | 1.40 | 99.90 ± 0.02 | 99.86 ± 0.04 | 99.79 ± 0.11 | only intact | rapid renal excretion | < 0.1 | 99.67 ± 0.19 | 99.56 ± 0.23 | 99.54 ± 0.25 | – | 0.20 ± 0.02 | 0.63 ± 0.08 | uptake ratio to [^68Ga]TAFC ([2]; listed as [^68Ga]TPFC): ~1.4; uptake in intestine [4, 9]: lower than 3 %ID/g; excretion in PET/CT images ([6]; listed as [^68Ga]TPFC): excreted rapidly via the urinary system; also recorded: certain hepatobiliary excretion
